Results from ChEMBL document CHEMBL2311529, “Structure-activity relationships in 1,4-benzodioxan-related compounds. 11. (1) reversed enantioselectivity of 1,4-dioxane derivatives in α1-adrenergic and 5-HT1A receptor binding sites recognition” (J Med Chem, 2013).

Assays:
[1] = target: T1, Alpha-1D adrenergic receptor (Homo sapiens, UniProt P25100); test: Displacement of [3H]prazosin from human recombinant alpha1D adrenergic receptor expressed in CHO cell membranes after 30 mins
T1 sequence (P25100 whole entry): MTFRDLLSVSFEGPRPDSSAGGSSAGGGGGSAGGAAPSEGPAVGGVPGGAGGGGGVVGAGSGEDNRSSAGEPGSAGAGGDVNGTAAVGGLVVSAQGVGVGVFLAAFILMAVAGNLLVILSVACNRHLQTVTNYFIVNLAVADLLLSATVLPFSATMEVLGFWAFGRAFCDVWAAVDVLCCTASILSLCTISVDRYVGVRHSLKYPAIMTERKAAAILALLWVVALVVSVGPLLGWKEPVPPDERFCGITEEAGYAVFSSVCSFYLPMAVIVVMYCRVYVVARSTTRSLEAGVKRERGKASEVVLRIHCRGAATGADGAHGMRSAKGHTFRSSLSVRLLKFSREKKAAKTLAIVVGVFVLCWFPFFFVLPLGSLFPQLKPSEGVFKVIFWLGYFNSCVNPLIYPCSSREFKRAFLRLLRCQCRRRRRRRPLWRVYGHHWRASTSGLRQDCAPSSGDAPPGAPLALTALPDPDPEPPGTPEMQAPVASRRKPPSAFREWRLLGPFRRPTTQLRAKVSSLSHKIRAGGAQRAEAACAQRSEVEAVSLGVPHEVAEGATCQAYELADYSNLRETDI

[2] = target: T2, Alpha-1B adrenergic receptor (Homo sapiens, UniProt P35368); test: Displacement of [3H]prazosin from human recombinant alpha1B adrenergic receptor expressed in CHO cell membranes after 30 mins
T2 sequence (P35368 whole entry): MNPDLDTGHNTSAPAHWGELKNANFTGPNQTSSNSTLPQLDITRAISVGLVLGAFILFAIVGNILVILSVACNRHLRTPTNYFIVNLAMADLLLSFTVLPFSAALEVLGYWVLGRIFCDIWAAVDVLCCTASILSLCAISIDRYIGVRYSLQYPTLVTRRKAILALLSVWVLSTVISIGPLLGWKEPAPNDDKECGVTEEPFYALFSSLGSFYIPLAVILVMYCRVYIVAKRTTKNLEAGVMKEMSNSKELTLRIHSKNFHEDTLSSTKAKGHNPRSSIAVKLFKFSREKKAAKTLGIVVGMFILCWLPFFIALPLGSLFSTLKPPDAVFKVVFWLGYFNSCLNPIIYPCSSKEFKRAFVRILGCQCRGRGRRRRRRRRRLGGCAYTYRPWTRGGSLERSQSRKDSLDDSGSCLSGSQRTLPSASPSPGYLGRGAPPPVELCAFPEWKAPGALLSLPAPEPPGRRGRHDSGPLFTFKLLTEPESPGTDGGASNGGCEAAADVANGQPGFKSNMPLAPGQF

PC-3 [3] = test: Cytotoxicity against human PC3 cells transfected with sialpha1D-AR assessed as concentration required for tumor growth inhibition after 48 hrs by sulforhodamine B assay; format: functional; conditions: PC-3, 48 h
PC-3 [4] = test: Cytotoxicity against human PC3 cells transfected with siGLO assessed as concentration required for tumor growth inhibition after 48 hrs by sulforhodamine B assay; format: functional; conditions: PC-3, 48 h
PC-3 [5] = test: Cytotoxicity against human PC3 cells assessed as concentration required for tumor growth inhibition after 48 hrs by sulforhodamine B assay; format: functional; conditions: PC-3, 48 h
PC-3 [6] = test: Cytotoxicity against human PC3 cells transfected with siGLO after 48 hrs by sulforhodamine B assay; format: functional; conditions: PC-3, 48 h; for CC50: read-out: LC50 (the source's name)
PC-3 [7] = test: Cytotoxicity against human PC3 cells transfected with sialpha1D-AR after 48 hrs by sulforhodamine B assay; format: functional; conditions: PC-3, 48 h; for CC50: read-out: LC50 (the source's name)
PC-3 [8] = test: Cytotoxicity against human PC3 cells after 48 hrs by sulforhodamine B assay; format: functional; conditions: PC-3, 48 h
[9] = target: T3, 5-hydroxytryptamine receptor 1A (Homo sapiens, UniProt P08908); test: Displacement of [3H]8-OH-DPAT from human recombinant 5HT1A receptor expressed in HeLa cell membranes after 30 mins
T3 sequence (P08908 whole entry): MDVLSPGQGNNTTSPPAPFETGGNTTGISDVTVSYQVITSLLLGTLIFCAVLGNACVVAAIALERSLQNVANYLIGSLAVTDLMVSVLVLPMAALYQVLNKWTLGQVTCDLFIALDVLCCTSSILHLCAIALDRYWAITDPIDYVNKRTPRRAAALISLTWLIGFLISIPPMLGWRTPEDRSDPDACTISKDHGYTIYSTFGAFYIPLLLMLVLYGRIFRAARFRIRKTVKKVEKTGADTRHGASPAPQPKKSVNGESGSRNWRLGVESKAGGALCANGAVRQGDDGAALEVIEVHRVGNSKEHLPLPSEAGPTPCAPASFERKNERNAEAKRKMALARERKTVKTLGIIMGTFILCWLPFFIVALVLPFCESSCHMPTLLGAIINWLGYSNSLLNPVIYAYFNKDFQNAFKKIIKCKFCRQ

[10] = target: T4, 5-hydroxytryptamine receptor 1A (Homo sapiens) (UniProt P08908); conditions: HeLa
T4 sequence (whole entry): T3 sequence (P08908 whole entry)
Description: Agonist activity at human 5HT1A receptor expressed in HeLa cell membranes by [35S]GTPgammaS binding assay

[11] = target: T5, Alpha-1A adrenergic receptor (Homo sapiens, UniProt P35348); test: biochemical
T5 sequence (P35348 whole entry): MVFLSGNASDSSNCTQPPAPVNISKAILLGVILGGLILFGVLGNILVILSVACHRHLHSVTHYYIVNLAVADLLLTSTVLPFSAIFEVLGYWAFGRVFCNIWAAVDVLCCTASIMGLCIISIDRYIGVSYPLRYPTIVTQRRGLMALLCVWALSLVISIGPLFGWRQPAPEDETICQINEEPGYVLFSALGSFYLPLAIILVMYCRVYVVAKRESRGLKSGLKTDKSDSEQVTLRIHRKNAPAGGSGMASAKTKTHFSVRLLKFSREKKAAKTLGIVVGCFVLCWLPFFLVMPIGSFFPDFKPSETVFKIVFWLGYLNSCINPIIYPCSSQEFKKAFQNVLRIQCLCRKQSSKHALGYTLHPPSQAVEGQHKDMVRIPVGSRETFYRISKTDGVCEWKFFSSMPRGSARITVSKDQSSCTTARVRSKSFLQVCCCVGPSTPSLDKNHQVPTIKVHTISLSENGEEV
Description: Displacement of [3H]prazosin from human recombinant alpha1A adrenergic receptor expressed in CHO cell membranes after 30 mins

PC-3 [12] = test: Ratio of LC50 for human PC3 cells transfected with sialpha1D-AR to LC50 for human PC3 cells; format: functional
PC-3 [13] = test: Ratio of concentration required for tumor growth inhibition of human PC3 cells transfected with sialpha1D-AR to concentration required for tumor growth inhibition of human PC3 cells; format: functional
PC-3 [14] = test: Ratio of GI50 for human PC3 cells transfected with sialpha1D-AR to GI50 for human PC3 cells; format: functional
[15] = target: T4, 5-hydroxytryptamine receptor 1A (Homo sapiens); conditions: HeLa; remark: listed apart in the source
Description: Partial agonist activity at human 5HT1A receptor expressed in HeLa cell membranes after 20 mins by [35S]GTPgammaS binding assay

| Compound | Ki [1] [nM] | Ki [2] [nM] | TGI (PC-3 [3]) [nM] | TGI (PC-3 [4]) [nM] | TGI (PC-3 [5]) [nM] | GI50 (PC-3 [6]) [nM] | CC50 (PC-3 [6]) [nM] | GI50 (PC-3 [7]) [nM] | CC50 (PC-3 [7]) [nM] | GI50 (PC-3 [8]) [nM] | LC50 (PC-3 [8]) [nM] | Ki [9] [nM] | pD2 [10] | Ki [11] [nM] | RatioLC50 (PC-3 [12]) | Ratio (PC-3 [13]) | RatioGI50 (PC-3 [14]) | pD2 [15] |
| --- | --- | --- | --- | --- | --- | --- | --- | --- | --- | --- | --- | --- | --- | --- | --- | --- | --- | --- |
| c1ccc(OCCNCC2COCC(c3ccccc3)(c3ccccc3)O2)cc1 (racemic) | 3.63 | 120 | 25000 | 7100 | 6000 | 4100 | 10700 | 23600 | 39800 | 3000 | 8000 | 0.589 | 9.11 | 170 |  |  |  |  |
| c1ccc(OCCNC[C@@H]2COCC(c3ccccc3)(c3ccccc3)O2)cc1 | 3.24 | 52.5 | 27100 | 2500 | 2100 | 900 | 5800 | 10200 | 52100 | 600 | 4000 | 1.48 |  | 129 | 13 | 12.9 | 17 | 7.82 |
| COc1cccc(OC)c1OCCNCC1COc2ccccc2O1 (stereo unspecified) |  |  |  |  |  |  |  |  |  | 64600 |  |  |  |  |  |  |  |  |
| COc1cccc(OC)c1OCCNC[C@H]1COc2ccccc2O1 |  |  |  |  |  |  |  |  |  |  |  | 2.45 |  |  |  |  |  |  |
| NCCc1c[nH]c2ccc(O)cc12 |  |  |  |  |  |  |  |  |  |  |  |  | 7.3 |  |  |  |  |  |
| COc1cccc(OC)c1OCCNC[C@@H]1COCC(c2ccccc2)(c2ccccc2)O1 | 56.2 | 195 |  |  | 58000 |  |  |  |  | 32000 | 65000 | 44.7 | 5.88 | 166 |  |  |  |  |
| COc1cc2nc(N3CCN(C(=O)C4COc5ccccc5O4)CC3)nc(N)c2cc1OC (stereo unspecified) [DOXAZOSIN] |  |  |  |  |  |  |  |  |  | 26900 |  |  |  |  |  |  |  |  |
| COc1ccccc1OCCNC[C@@H]1COCC(c2ccccc2)(c2ccccc2)O1 | 1.38 | 21.9 |  |  | 9000 |  |  |  |  | 4000 |  | 0.603 |  | 16.6 |  |  |  | 7.7 |
| c1ccc(OCCNC[C@H]2COCC(c3ccccc3)(c3ccccc3)O2)cc1 | 83.2 | 170 | 49200 | 41700 | 43000 | 22800 | > 300000 | 20700 | > 300000 | 19100 | > 300000 | 0.398 |  | 437 |  |  |  | 9.19 |
| COc1cccc(OC)c1OCCNC[C@@H]1COc2ccccc2O1 |  |  |  |  |  |  |  |  |  |  |  | 40.7 |  |  |  |  |  |  |
| COc1ccccc1OCCNC[C@H]1COCC(c2ccccc2)(c2ccccc2)O1 | 25.1 | 417 |  |  | 34000 |  |  |  |  | 21000 |  | 0.309 |  | 257 |  |  |  | 9.19 |
| COc1ccccc1N1CCN(CCN2C(=O)CC3(CCCC3)CC2=O)CC1 |  |  |  |  |  |  |  |  |  |  |  |  | 9.27 |  |  |  |  |  |
| COc1cccc(OC)c1OCCNC[C@H]1COCC(c2ccccc2)(c2ccccc2)O1 | 724 | 1660 |  |  | 30000 |  |  |  |  | 16000 | 37000 | 0.55 | 8.3 | > 1000 |  |  |  |  |
| COc1cccc(OC)c1OCCNCC1COCC(c2ccccc2)(c2ccccc2)O1 (racemic) | 66.1 | 324 |  |  | 32000 |  |  |  |  | 14000 | 45000 | 1.41 | 8.28 | 339 |  |  |  |  |
| COc1ccccc1OCCNCC1COCC(c2ccccc2)(c2ccccc2)O1 (racemic) | 1.15 | 56.2 |  |  | 16000 |  |  |  |  | 9000 |  | 0.661 | 9.4 | 27.5 |  |  |  |  |
